Data from patent publication US20250122223A1, “HETEROCYCLIC COMPOUNDS AS UBIQUITIN SPECIFIC PROTEASE 7 INHIBITORS” (ALMAC DISCOVERY LIMITED, priority 2022, published 2025).
Like-named read-outs stand apart in the source and are kept apart here.

Target: USP7 (Homo sapiens (Human), UniProt Q93009)
Assay: USP7 fluorescence polarisation (FP) assay with ubiquitin-Lys-TAMRA substrate
Type: biochemical
Details: biochemical inhibition
Protocol: USP7 activity was monitored in a fluorescence polarisation (FP) homogeneous assay using the isopeptide ubiquitin-Lys-TAMRA substrate (U-558, Boston Biochem). Full-length USP7 was purchased from Boston Biochem (His6-USP7FL, E-519). Unless otherwise stated, all other reagents were purchased from Sigma-Aldrich. Enzymatic reactions were conducted in black flat-bottom low volume polystyrene 384-well plates (Grenier) and 15 μL total volume. USP7 (2.5 nM, 5 μL) was incubated in assay buffer (50 mM HEPES (pH 7.2), 150 mM NaCl, 5 mM DTT, 0.05% BSA (w/v), 0.05% CHAPS) in the presence or absence of inhibitor (5 μL). Inhibitors were stored as 10 mM DMSO stocks in an inert environment (low humidity, dark, low oxygen, room temperature) using a Storage Pod System and serial dilutions were prepared in buffer just prior to the assay (from 200 to 0.003 μM, 11 dp curve). Following incubation at room temperature for 30 min, the enzymatic reactions were initiated by dispensing the Ub substrate (50 nM, 5 μL). FP was measured every 5 min over a period of 1.5 h (within the linear range of the assay) using a Pherastar FSX (BMG Labtech) exciting at 530 nm and measuring the amount of parallel and perpendicular light at 575 nm. The FP signal was subsequently normalised to the control without compound present. Data were plotted and fitted, and the concentrations resulting in 50% inhibition (IC50) were calculated using the non-linear regression curve fitting model using GraphPad Prism.

[1] = read-out: USP7 IC50 activity (Table 3a, classes)
[2] = unit not given in Table 3b (Table 1 and key of Table 3a use μM), read-out: USP7 IC50 activity (Table 3b)

Sequence of USP7 (Q93009 whole entry): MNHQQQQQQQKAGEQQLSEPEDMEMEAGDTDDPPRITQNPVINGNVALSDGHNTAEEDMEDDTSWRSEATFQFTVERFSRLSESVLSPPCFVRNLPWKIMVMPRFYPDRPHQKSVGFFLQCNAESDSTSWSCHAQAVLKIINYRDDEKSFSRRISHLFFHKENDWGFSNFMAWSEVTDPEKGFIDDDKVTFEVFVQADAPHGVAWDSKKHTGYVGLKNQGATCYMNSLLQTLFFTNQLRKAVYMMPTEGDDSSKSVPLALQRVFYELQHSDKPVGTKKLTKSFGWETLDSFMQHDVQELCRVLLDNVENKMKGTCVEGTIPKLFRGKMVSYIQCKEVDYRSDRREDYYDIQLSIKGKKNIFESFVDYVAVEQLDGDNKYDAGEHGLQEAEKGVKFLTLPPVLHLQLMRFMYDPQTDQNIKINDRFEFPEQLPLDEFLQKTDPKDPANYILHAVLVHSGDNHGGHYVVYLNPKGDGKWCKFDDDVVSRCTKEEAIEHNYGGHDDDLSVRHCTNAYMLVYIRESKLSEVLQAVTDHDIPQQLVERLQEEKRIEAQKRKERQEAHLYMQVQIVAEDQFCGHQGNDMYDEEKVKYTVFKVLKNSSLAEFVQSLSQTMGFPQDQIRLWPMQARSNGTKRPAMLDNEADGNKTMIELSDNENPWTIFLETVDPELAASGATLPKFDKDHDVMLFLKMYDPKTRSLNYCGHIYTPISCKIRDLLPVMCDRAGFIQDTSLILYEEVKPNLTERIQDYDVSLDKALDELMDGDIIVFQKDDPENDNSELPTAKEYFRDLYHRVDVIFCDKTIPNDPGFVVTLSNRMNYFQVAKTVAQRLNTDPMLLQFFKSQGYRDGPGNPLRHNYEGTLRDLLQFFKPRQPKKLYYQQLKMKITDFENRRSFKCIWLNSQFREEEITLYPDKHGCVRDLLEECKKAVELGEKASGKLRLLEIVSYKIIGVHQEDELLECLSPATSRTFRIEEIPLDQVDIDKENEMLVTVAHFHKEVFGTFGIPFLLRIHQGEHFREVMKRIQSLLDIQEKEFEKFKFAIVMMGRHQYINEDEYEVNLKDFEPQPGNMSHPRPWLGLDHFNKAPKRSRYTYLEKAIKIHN

SMILES | IC50 [1] [µM] | IC50 [2] [µM]
CC1(C(=O)N2CCC(O)(Cn3cnc4c(cc(Cl)n4-c4ccc([C@@H]5COCCN5)cc4)c3=O)CC2)CC1 (single isomer, unassigned) [Example 71] | < 0.1 | 0.094
Cc1cc(-n2c(Cl)cc3c(=O)n(CC4(O)CCN(C(=O)C5(C)CC5)CC4)cnc32)ccc1[C@H]1COCCN1 (single isomer, unassigned) [Example 73] | < 0.1 | 0.018
Cc1cc(-n2c(Cl)cc3c(=O)n(CC4(O)CCN(C(=O)C5(C)CC5)CC4)cnc32)ccc1[C@@H]1COCCN1 (single isomer, unassigned) [Example 74] | 0.1 to 0.25 | 0.112
O=C(c1ccc(Cl)cc1)N1CCC(O)(Cn2cnc3c(cc(Cl)n3-c3ccc([C@H]4COCCN4)cc3)c2=O)CC1 (single isomer, unassigned) [Example 76] | < 0.1 | 0.038
O=C(c1ccc(Cl)cc1)N1CCC(O)(Cn2cnc3c(cc(Cl)n3-c3ccc([C@@H]4COCCN4)cc3)c2=O)CC1 (single isomer, unassigned) [Example 77] | < 0.1 | 0.052
O=C(C[C@H](c1ccccc1)C(F)(F)F)N1CCC(O)(Cn2cnc3c(cc(Cl)n3-c3ccc([C@H]4COCCN4)cc3)c2=O)CC1 (single isomer, unassigned) [Example 78] | < 0.1 | 0.016
O=C(N1CCC(O)(Cn2cnc3c(cc(Cl)n3-c3ccc([C@H]4COCCN4)cc3)c2=O)CC1)C1(C2CC2)CC1 (single isomer, unassigned) [Example 79] | < 0.1 | 0.039
O=C(N1CCC(O)(Cn2cnc3c(cc(Cl)n3-c3ccc([C@@H]4COCCN4)cc3)c2=O)CC1)C1(C2CC2)CC1 (single isomer, unassigned) [Example 80] | < 0.1 | 0.041
O=C(C[C@H](c1ccccc1)C(F)(F)F)N1CCC(O)(Cn2cnc3c(cc(Cl)n3-c3ccc([C@@H]4COCCN4)cc3)c2=O)CC1 (single isomer, unassigned) [Example 81] | < 0.1 | 0.015
O=C(C[C@H](c1ccccc1)C(F)F)N1CCC(O)(Cn2cnc3c(cc(Cl)n3-c3ccc([C@@H]4COCCN4)cc3)c2=O)CC1 (single isomer, unassigned) [Example 85] | < 0.1 | 0.006
CC1(C)CN[C@H](c2ccc(-n3c(Cl)cc4c(=O)n(CC5(O)CCN(C(=O)C6(C)CC6)CC5)cnc43)cc2)CO1 (single isomer, unassigned) [Example 98, (R)-6-Chloro-7-(4-(6,6-dimethylmorpholin-3-yl)phenyl)-3-((4-hydroxy-1-(1-methylcyclopropane-1-carbonyl)piperidin-4-yl)methyl)-3,7-dihydro-4H-pyrrolo[2,3-d]pyrimidin-4-one or (S)-6-chloro-7-(4-(6,6-dimethylmorpholin-3-yl)phenyl)-3-((4-hydroxy-1-(1-methylcyclopropane-1-carbonyl)piperidin-4-yl)methyl)-3,7-dihydro-4H-pyrrolo[2,3-d]pyrimidin-4-one] | < 0.1 | 0.045
C[C@@]1(C(=O)N2CCC(O)(Cn3cnc4c(cc(Cl)n4-c4ccc([C@H]5COCCN5)cc4)c3=O)CC2)C[C@H]1C(F)(F)F (single isomer, unassigned) [Example 110, 6-Chloro-3-((4-hydroxy-1-((1R,2R)-1-methyl-2-(trifluoromethyl)cyclopropane-1-carbonyl)piperidin-4-yl)methyl)-7-(4-((S)-morpholin-3-yl)phenyl)-3,7-dihydro-4H-pyrrolo[2,3-d]pyrimidin-4-one or 6-chloro-3-((4-hydroxy-1-((1R,2R)-1-methyl-2-(trifluoromethyl)cyclopropane-1-carbonyl)piperidin-4-yl)methyl)-7-(4-((R)-morpholin-3-yl)phenyl)-3,7-dihydro-4H-pyrrolo[2,3-d]pyrimidin-4-one] | < 0.1 | 0.079
CC1(C(=O)N2CCC(O)(Cn3cnc4c(cc(Cl)n4-c4ccc(C5(C)COCCN5)cc4)c3=O)CC2)CC1 (stereo not shown) [Example 3, 6-Chloro-3-((4-hydroxy-1-(1-methylcyclopropane-1-carbonyl)piperidin-4-yl)methyl)-7-(4-(3-methylmorpholin-3-yl)phenyl)-3,7-dihydro-4H-pyrrolo[2,3-d]pyrimidin-4-one] | 0.1 to 0.25 | 0.132
C[C@H]1CN[C@H](c2ccc(-n3c(Cl)cc4c(=O)n(CC5(O)CCN(C(=O)c6ccc(Cl)cc6)CC5)cnc43)cc2)CO1 [Example 4, 6-Chloro-3-((1-(4-chlorobenzoyl)-4-hydroxypiperidin-4-yl)methyl)-7-(4-((3R,6S)-6-methylmorpholin-3-yl)phenyl)-3,7-dihydro-4H-pyrrolo[2,3-d]pyrimidin-4-one] | 0.1 to 0.25 | 0.222
Cc1cc(-n2c(Cl)cc3c(=O)n(CC4(O)CCN(C(=O)c5ccc(Cl)cc5)CC4)cnc32)ccc1[C@@H]1CO[C@@H](C)CN1 [Example 5, 6-Chloro-3-((1-(4-chlorobenzoyl)-4-hydroxypiperidin-4-yl)methyl)-7-(3-methyl-4-((3R,6S)-6-methylmorpholin-3-yl)phenyl)-3,7-dihydro-4H-pyrrolo[2,3-d]pyrimidin-4-one] | 0.1 to 0.25 | 0.225
C[C@@H]1OCCN[C@H]1c1ccc(-n2c(Cl)cc3c(=O)n(CC4(O)CCN(C(=O)c5ccc(Cl)cc5)CC4)cnc32)cc1 [Example 6, 6-Chloro-3-((1-(4-chlorobenzoyl)-4-hydroxypiperidin-4-yl)methyl)-7-(4-((2S,3S)-2-methylmorpholin-3-yl)phenyl)-3,7-dihydro-4H-pyrrolo[2,3-d]pyrimidin-4-one] | < 0.1 | 0.05
C[C@H]1CN[C@H](c2ccc(-n3c(Cl)cc4c(=O)n(CC5(O)CCN(C(=O)C[C@H](c6ccccc6)C(F)(F)F)CC5)cnc43)cc2)CO1 [Example 7, 6-Chloro-3-((4-hydroxy-1-((R)-4,4,4-trifluoro-3-phenylbutanoyl)piperidin-4-yl)methyl)-7-(4-((3R,6S)-6-methylmorpholin-3-yl)phenyl)-3,7-dihydro-4H-pyrrolo[2,3-d]pyrimidin-4-one] | < 0.1 | 0.016
C[C@@H]1CN[C@@H](c2ccc(-n3c(Cl)cc4c(=O)n(CC5(O)CCN(C(=O)c6ccc(Cl)cc6)CC5)cnc43)cc2)CO1 [Example 11, 6-Chloro-3-((1-(4-chlorobenzoyl)-4-hydroxypiperidin-4-yl)methyl)-7-(4-((3S,6R)-6-methylmorpholin-3-yl)phenyl)-3,7-dihydro-4H-pyrrolo[2,3-d]pyrimidin-4-one] | < 0.1 | 0.08
Cc1cc(-n2c(Cl)cc3c(=O)n(CC4(O)CCN(C(=O)c5ccc(Cl)cc5)CC4)cnc32)ccc1[C@H]1CO[C@H](C)CN1 [Example 12, 6-Chloro-3-((1-(4-chlorobenzoyl)-4-hydroxypiperidin-4-yl)methyl)-7-(3-methyl-4-((3S,6R)-6-methylmorpholin-3-yl)phenyl)-3,7-dihydro-4H-pyrrolo[2,3-d]pyrimidin-4-one] | 0.1 to 0.25 | 0.13
C[C@@H]1CN[C@@H](c2ccc(-n3c(Cl)cc4c(=O)n(CC5(O)CCN(C(=O)C[C@H](c6ccccc6)C(F)(F)F)CC5)cnc43)cc2)CO1 [Example 13, 6-Chloro-3-((4-hydroxy-1-((R)-4,4,4-trifluoro-3-phenylbutanoyl)piperidin-4-yl)methyl)-7-(4-((3S,6R)-6-methylmorpholin-3-yl)phenyl)-3,7-dihydro-4H-pyrrolo[2,3-d]pyrimidin-4-one] | < 0.1 | 0.028
